# Read-outs that look alike come from different tables or passages of the source.
# How the values were obtained:
# [1] = tested on: intraocular pressure in human eyes; settings: cited from earlier work
# [2] = tested on: intraocular pressure (IOP); settings: rabbits, cited from earlier work
# [3] = tested on: intraocular pressure (IOP); test: IOP reduction in cynomolgus monkeys with ocular hypertension produced by laser trabeculoplasty; type: in vivo; settings: for Percent IOP Reduction at Hours after Dose/Dose# 2/5: 2 hours after fifth dose; for Percent IOP Reduction at Hours after Dose/Dose# 4/5: 4 hours after fifth dose; for Percent IOP Reduction at Hours after Dose/Dose# 6/5: 6 hours after fifth dose; for Percent IOP Reduction at Hours after Dose/Dose# 16/4: 16 hours after fourth dose; for reduction of intraocular pressure (in words): at doses marginal or ineffective for other prostaglandins in published clinical studies
# Protocol: The ability of certain compounds of the present invention to reduce intraocular pressure (IOP) was evaluated in cynomolgus monkeys with ocular hypertension produced by previous laser trabeculoplasty in the right eye. Animals had been trained to sit in restraint chairs and conditioned to accept experimental procedures without chemical restraint. IOP was determined with a pneumatonometer after light corneal anesthesia with dilute proparacaine. The test protocol included a treatment regimen consisting of 5 divided doses administered over a period of 2 and ½ days. Doses 2-5 were given 8, 24, 32 and 48 hours after the initial dose. Baseline IOP values were determined prior to treatment with the test formulation, and then IOP was determined 16 hours after the fourth dose, and 2, 4 and 6 hours after the fifth dose. Prostaglandin doses are micrograms of compound contained in each treatment. The two compounds tested are those previously identified as Compounds (II) and (IV).
smiles,measurement,setting,value
O=C(O)CCCCCCC1C(=O)NC(=O)N1CCC(O)C1CCCCC1 (stereo not shown) [BW245C],reduction of intraocular pressure in human eyes,[1]; 2.5 μg,10%
same,maximum IOP reduction,[2]; 25 μg,~22%
"CC(C)(C)OC(=O)COC/C=C\C[C@@H]1[C@@H](CC[C@@H](O)C2CCCCC2)[C@H](O)C[C@H]1Cl [Compound (II), (5Z)-(9R, 11R, 15R)-9-Chloro-15-cyclohexyl-11,15-dihydroxy-3-oxa-16,17,18,19,20-pentanor-5-prostenoic Acid t-Butyl Ester]",reduction of intraocular pressure,[3]; 5 μg of compound,~50%
same,Percent IOP Reduction at Hours after Dose/Dose# 2/5,[3]; PG dose 1 μg per treatment,30.8 ± 4.7%
same,Percent IOP Reduction at Hours after Dose/Dose# 4/5,[3]; PG dose 1 μg per treatment,26.4 ± 4.7%
same,Percent IOP Reduction at Hours after Dose/Dose# 6/5,[3]; PG dose 1 μg per treatment,24.9 ± 4.0%
same,Percent IOP Reduction at Hours after Dose/Dose# 16/4,[3]; PG dose 1 μg per treatment,22.3 ± 2.7%
same,Percent IOP Reduction at Hours after Dose/Dose# 2/5,[3]; PG dose 5 μg per treatment,47.5 ± 5.1%
same,Percent IOP Reduction at Hours after Dose/Dose# 4/5,[3]; PG dose 5 μg per treatment,43.7 ± 5.6%
same,Percent IOP Reduction at Hours after Dose/Dose# 6/5,[3]; PG dose 5 μg per treatment,36.5 ± 5.8%
same,Percent IOP Reduction at Hours after Dose/Dose# 16/4,"[3]; PG dose 5 μg per treatment, lasered right eye, topical",38.3 ± 3.0%
same,reduction of intraocular pressure (in words),[3],significant reduction
"CC(C)OC(=O)CCC/C=C\C[C@@H]1[C@@H](CC[C@@H](O)C2CCCCC2)[C@H](O)C[C@H]1Cl [Compound (IV), (5Z)-(9R, 11R, 15R)-9-Chloro-15-cyclohexyl-11,15-dihydroxy-16,17,18,19,20-pentanor-5-prostenoic Acid Isopropyl Ester]",Percent IOP Reduction at Hours after Dose/Dose# 2/5,[3]; PG dose 20 μg per treatment,30.1 ± 4.8%
same,Percent IOP Reduction at Hours after Dose/Dose# 4/5,[3]; PG dose 20 μg per treatment,22.4 ± 5.2%
same,Percent IOP Reduction at Hours after Dose/Dose# 6/5,[3]; PG dose 20 μg per treatment,19.3 ± 4.3%
same,Percent IOP Reduction at Hours after Dose/Dose# 16/4,[3]; PG dose 20 μg per treatment,13.9 ± 2.7%
same,reduction of intraocular pressure (in words),[3],significant reduction
CCCCC[C@H](O)/C=C/[C@H]1C(=O)C[C@H](O)[C@@H]1C/C=C\CCCC(=O)O [PGD2],reduction of intraocular pressure in human eyes,[1]; 50 μg,12%
same,maximum IOP reduction,[2]; 250 μg,approximately 28%
